Laboratory results published in ChEMBL document CHEMBL3352371, “Antiadhesive properties of glycoclusters against Pseudomonas aeruginosa lung infection” (J Med Chem, 2014).
The source made the active and inactive calls. No cut-off for these calls is given here.

Columns and labels:
Pseudomonas aeruginosa [1] = assay: Induction of bacterial aggregation in Pseudomonas aeruginosa PAO1 at 6 to 5000 uM by optical microscopy; assay type: functional, organism-based
Pseudomonas aeruginosa [2] = assay: Induction of bacterial aggregation in Pseudomonas aeruginosa PAO1 expressing deltalecA mutant at 6 to 5000 uM by optical microscopy; assay type: functional, organism-based
Pseudomonas aeruginosa [3] = assay: Induction of bacterial aggregation in Pseudomonas aeruginosa PAO1 expressing deltalecB mutant at 6 to 5000 uM by optical microscopy; assay type: functional, organism-based
Pseudomonas aeruginosa [4] = assay: Inhibition of Pseudomonas aeruginosa PAO1 adhesion to human A549 cells 25 to 2500 uM; assay type: functional
Pseudomonas aeruginosa [5] = assay: Inhibition of deltalecA mutant expressing Pseudomonas aeruginosa PAO1 adhesion to human A549 cells 25 to 2500 uM; assay type: functional, organism-based
Pseudomonas aeruginosa [6] = assay: Inhibition of deltalecB mutant expressing Pseudomonas aeruginosa PAO1 adhesion to human A549 cells 25 to 2500 uM; assay type: functional, organism-based
Pseudomonas aeruginosa [7] = assay: Inhibition of biofilm formation of Pseudomonas aeruginosa PAO1 at 0.1 to 5 mM after 24 hrs by crystal violet staining; assay type: functional, organism-based
Pseudomonas aeruginosa [8] = assay: Antimicrobial activity Pseudomonas aeruginosa PAO1 infected C57BL6/J mouse lung injury model assessed as effect on alveolar-capillary permeability using 5 mM compound pre-treated bacteria for infection; assay type: functional, organism-based
Pseudomonas aeruginosa [9] = assay: Antimicrobial activity Pseudomonas aeruginosa PAO1 infected C57BL6/J mouse lung injury model assessed as effect on alveolar-capillary permeability using 1 mM compound pre-treated bacteria for infection; assay type: functional, organism-based
[10] = molecular target: T1, PA-I galactophilic lectin (Pseudomonas aeruginosa (strain ATCC 15692 / PAO1 / 1C / PRS 101 / LMG12228), UniProt Q05097); assay: Binding affinity to Pseudomonas aeruginosa LecA by ITC method
T1 sequence (Q05097 whole entry): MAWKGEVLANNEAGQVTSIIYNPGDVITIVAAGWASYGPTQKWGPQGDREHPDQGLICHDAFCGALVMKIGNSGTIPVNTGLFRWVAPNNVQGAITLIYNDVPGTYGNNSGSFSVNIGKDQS

Pseudomonas aeruginosa [11] = assay: Induction of filamentous-like and spherical bacterial aggregation in Pseudomonas aeruginosa PAO1 at 6 to 6600 uM by optical microscopy; assay type: functional, organism-based
Pseudomonas aeruginosa [12] = assay: Induction of filamentous-like and spherical bacterial aggregation in Pseudomonas aeruginosa PAO1 expressing deltalecA mutant at 6 to 6600 uM by optical microscopy; assay type: functional, organism-based
Pseudomonas aeruginosa [13] = assay: Induction of bacterial aggregation in Pseudomonas aeruginosa PAO1 expressing deltalecA mutant assessed as number of aggregates per 100 uL of PBS cell solution at 100 uM by optical microscopy; assay type: functional, organism-based
Pseudomonas aeruginosa [14] = assay: Inhibition of deltalecA mutant expressing Pseudomonas aeruginosa PAO1 adhesion to human A549 cells <250 uM; assay type: functional, organism-based
Pseudomonas aeruginosa [15] = assay: Inhibition of deltalecA mutant expressing Pseudomonas aeruginosa PAO1 adhesion to human A549 cells 250 to 2500 uM; assay type: functional, organism-based
Pseudomonas aeruginosa [16] = assay: Inhibition of Pseudomonas aeruginosa PAO1 localization at human A549 cell membranes at 250 to 2500 uM by confocal microscopy; assay type: functional, organism-based
Pseudomonas aeruginosa [17] = assay: Inhibition of biofilm formation of Pseudomonas aeruginosa PAO1 at 0.1 mM after 24 hrs by crystal violet staining; assay type: functional, organism-based
Pseudomonas aeruginosa [18] = assay: Inhibition of biofilm formation of Pseudomonas aeruginosa PAO1 at 5 mM after 24 hrs by crystal violet staining; assay type: functional, organism-based
Pseudomonas aeruginosa [19] = assay: Effect on growth of Pseudomonas aeruginosa PAO1 at 0.1 to 5 mM after 24 hrs; assay type: organism-based; settings: 5000 µM
Pseudomonas aeruginosa [20] = assay: Inhibition of biofilm formation of Pseudomonas aeruginosa PAO1 expressing deltalecA mutant at 5 mM after 24 hrs by crystal violet staining; assay type: functional, organism-based
Pseudomonas aeruginosa [21] = assay: Inhibition of biofilm formation of Pseudomonas aeruginosa PAO1 expressing deltalecB mutant at 5 mM after 24 hrs by crystal violet staining; assay type: functional, organism-based
Pseudomonas aeruginosa [22] = assay: Antimicrobial activity Pseudomonas aeruginosa PAO1 infected C57BL6/J mouse lung injury model assessed as reduction in alveolar-capillary permeability using 5 mM compound pre-treated bacteria for infection; assay type: functional
Pseudomonas aeruginosa [23] = assay: Antimicrobial activity Pseudomonas aeruginosa PAO1 infected C57BL6/J mouse lung injury model assessed as reduction in alveolar-capillary permeability using 1 mM compound pre-treated bacteria for infection; assay type: functional
Pseudomonas aeruginosa [24] = assay: Antimicrobial activity Pseudomonas aeruginosa PAO1 infected C57BL6/J mouse lung injury model assessed as protection against lung infection using 1 to 5 mM compound pre-treated bacteria for infection; assay type: functional, organism-based
[25] = Binding affinity to Pseudomonas aeruginosa LecB by ITC method
Pseudomonas aeruginosa [26] = assay: Induction of bacterial aggregation in Pseudomonas aeruginosa PAO1 assessed as number of aggregates per 100 uL of PBS cell solution at 100 uM by optical microscopy; assay type: functional
Pseudomonas aeruginosa [27] = assay: Induction of bacterial aggregation in Pseudomonas aeruginosa PAO1 expressing deltalecB mutant assessed as number of aggregates per 100 uL of PBS cell solution at 100 uM by optical microscopy; assay type: functional
Pseudomonas aeruginosa [28] = assay: Binding affinity to Pseudomonas aeruginosa LecB at 1.5 mM by ITC method
[29] = molecular target: T2, PA-I galactophilic lectin (Pseudomonas aeruginosa (strain ATCC 15692 / PAO1 / 1C / PRS 101 / LMG12228)) (UniProt Q05097); assay: Binding affinity to Pseudomonas aeruginosa LecA at 1.5 mM by ITC method
T2 sequence (whole entry): T1 sequence (Q05097 whole entry)

Pseudomonas aeruginosa [30] = assay: Induction of filamentous-like and spherical bacterial aggregation in Pseudomonas aeruginosa PAO1 expressing deltalecB mutant at 6 to 6600 uM by optical microscopy; assay type: functional, organism-based

| Structure (SMILES) | Activity (Pseudomonas aeruginosa [1]) | Activity (Pseudomonas aeruginosa [2]) | Activity (Pseudomonas aeruginosa [3]) | inhibition (INH) (Pseudomonas aeruginosa [4]) [%] | inhibition (Pseudomonas aeruginosa [7]) | Activity (Pseudomonas aeruginosa [13]) | inhibition (Pseudomonas aeruginosa [20]) | inhibition (Pseudomonas aeruginosa [21]) | Kd [25] [nM] | Activity (Pseudomonas aeruginosa [26]) | Activity (Pseudomonas aeruginosa [27]) | further results |
| --- | --- | --- | --- | --- | --- | --- | --- | --- | --- | --- | --- | --- |
| CO[C@@H]1O[C@@H](C)[C@@H](O)[C@@H](O)[C@@H]1O | inactive | inactive | inactive | 65 | inactive |  |  |  |  |  |  | inhibition (Pseudomonas aeruginosa [5]): Active; inhibition (Pseudomonas aeruginosa [6]): inactive; Activity (Pseudomonas aeruginosa [8]): inactive; Activity (Pseudomonas aeruginosa [9]): inactive |
| C[C@H]1O[C@@H](OCCOCCOCCn2cc(COc3c4cc(C(C)(C)C)cc3Cc3cc(C(C)(C)C)cc(c3OCc3cn(CCOCCOCCO[C@@H]5O[C@H](CO)[C@H](O)[C@H](O)[C@H]5O)nn3)Cc3cc(C(C)(C)C)cc(c3OCc3cn(CCOCCOCCO[C@@H]5O[C@H](CO)[C@H](O)[C@H](O)[C@H]5O)nn3)Cc3cc(C(C)(C)C)cc(c3OCc3cn(CCOCCOCCO[C@@H]5O[C@H](CO)[C@H](O)[C@H](O)[C@H]5O)nn3)C4)nn2)[C@H](O)[C@@H](O)[C@H]1O |  |  |  | 70 |  | inactive | Active | Active |  |  |  | Kd [10]: 176 nM; Activity (Pseudomonas aeruginosa [11]): Active; Activity (Pseudomonas aeruginosa [12]): inactive; inhibition (Pseudomonas aeruginosa [14]): inactive; inhibition (Pseudomonas aeruginosa [15]): Active; inhibition (Pseudomonas aeruginosa [16]): Active; inhibition (Pseudomonas aeruginosa [17]): inactive; inhibition (Pseudomonas aeruginosa [18]): Active; Activity (Pseudomonas aeruginosa [19]): Non-toxic; inhibition (INH) (Pseudomonas aeruginosa [22]): 50%; inhibition (INH) (Pseudomonas aeruginosa [23]): 50%; Activity (Pseudomonas aeruginosa [24]): inactive |
| CC(C)(C)c1cc2c(OCc3cn(CCOCCOCCO[C@H]4O[C@H](CO)[C@@H](O)[C@H](O)[C@@H]4O)nn3)c(c1)Cc1cc(C(C)(C)C)cc(c1OCc1cn(CCOCCOCCO[C@H]3O[C@H](CO)[C@@H](O)[C@H](O)[C@@H]3O)nn1)Cc1cc(C(C)(C)C)cc(c1OCc1cn(CCOCCOCCO[C@H]3O[C@H](CO)[C@@H](O)[C@H](O)[C@@H]3O)nn1)Cc1cc(C(C)(C)C)cc(c1OCc1cn(CCOCCOCCO[C@H]3O[C@H](CO)[C@@H](O)[C@H](O)[C@@H]3O)nn1)C2 |  |  |  |  |  |  | inactive | inactive | 2270 | 70 | 11 |  |
| C[C@@H]1O[C@@H](OCCOCCOCCn2cc(CO)nn2)[C@@H](O)[C@H](O)[C@@H]1O |  |  |  |  |  |  |  |  | 304 |  |  |  |
| OCc1cn(CCOCCOCCO[C@@H]2O[C@H](CO)[C@H](O)[C@H](O)[C@H]2O)nn1 |  |  |  |  |  |  |  |  |  |  |  | Kd [10]: 150000 nM |
| CC(C)(C)c1cc2c(OCc3cn(CCOCCOCCO[C@@H]4O[C@H](CO)[C@@H](O)[C@H](O)[C@H]4O)nn3)c(c1)Cc1cc(C(C)(C)C)cc(c1OCc1cn(CCOCCOCCO[C@@H]3O[C@H](CO)[C@@H](O)[C@H](O)[C@H]3O)nn1)Cc1cc(C(C)(C)C)cc(c1OCc1cn(CCOCCOCCO[C@@H]3O[C@H](CO)[C@@H](O)[C@H](O)[C@H]3O)nn1)Cc1cc(C(C)(C)C)cc(c1OCc1cn(CCOCCOCCO[C@@H]3O[C@H](CO)[C@@H](O)[C@H](O)[C@H]3O)nn1)C2 |  |  |  |  | inactive | inactive | inactive | inactive |  | inactive | inactive | Activity (Pseudomonas aeruginosa [28]): inactive; Activity [29]: inactive |
| CO[C@H]1O[C@H](CO)[C@H](O)[C@H](O)[C@H]1O | inactive | inactive | inactive |  |  | inactive |  |  |  | inactive | inactive |  |
| CO[C@@H]1O[C@H](CO)[C@H](O)[C@H](O)[C@H]1O | inactive | inactive | inactive | 30 | inactive | inactive |  |  |  | inactive | inactive | inhibition (Pseudomonas aeruginosa [14]): inactive; Activity (Pseudomonas aeruginosa [8]): inactive; Activity (Pseudomonas aeruginosa [9]): inactive |
| C[C@@H]1O[C@@H](OCCOCCOCCn2cc(COc3c4cc(C(C)(C)C)cc3Cc3cc(C(C)(C)C)cc(c3OCc3cn(CCOCCOCCO[C@@H]5O[C@@H](C)[C@@H](O)[C@@H](O)[C@@H]5O)nn3)Cc3cc(C(C)(C)C)cc(c3OCc3cn(CCOCCOCCO[C@@H]5O[C@@H](C)[C@@H](O)[C@@H](O)[C@@H]5O)nn3)Cc3cc(C(C)(C)C)cc(c3OCc3cn(CCOCCOCCO[C@@H]5O[C@@H](C)[C@@H](O)[C@@H](O)[C@@H]5O)nn3)C4)nn2)[C@@H](O)[C@H](O)[C@@H]1O |  |  |  | 90 |  |  | Active | Active | 48 |  | 50 | Activity (Pseudomonas aeruginosa [11]): Active; Activity (Pseudomonas aeruginosa [30]): Active; inhibition (Pseudomonas aeruginosa [5]): Active; inhibition (Pseudomonas aeruginosa [6]): inactive; inhibition (Pseudomonas aeruginosa [16]): Active; inhibition (Pseudomonas aeruginosa [17]): inactive; inhibition (Pseudomonas aeruginosa [18]): Active; Activity (Pseudomonas aeruginosa [19]): Non-toxic; inhibition (INH) (Pseudomonas aeruginosa [22]): 50%; inhibition (INH) (Pseudomonas aeruginosa [23]): 50%; Activity (Pseudomonas aeruginosa [24]): inactive |
| CO[C@H]1O[C@H](CO)[C@@H](O)[C@H](O)[C@@H]1O |  |  |  |  |  | inactive |  |  |  | inactive | inactive |  |
